{
  "source": "patent US11959086B2",
  "about": "“Dual transit peptides for targeting polypeptides” (BASF AGRO B.V., priority 2016, dated 2024)",
  "assay_in_all_cases": "Herbicide injury evaluation of Arabidopsis plants, greenhouse",
  "type_in_all_cases": "in vivo",
  "key": {"[1]": {"test_system": "transgenic Arabidopsis thaliana, transgene SEQ ID NO 120", "details": "Table 4, scale 0-100"}, "[2]": {"test_system": "transgenic Arabidopsis thaliana, transgene SEQ ID NO 121", "details": "Table 3, scale 0-100"}, "[3]": {"test_system": "transgenic Arabidopsis thaliana, transgene SEQ ID NO 118", "details": "scale 0-100"}, "[4]": {"test_system": "Wildtype/non-transgenic Arabidopsis thaliana", "details": "scale 0-100"}, "[5]": {"test_system": "transgenic Arabidopsis thaliana, transgene SEQ ID NO 117", "details": "Table 3, scale 0-100"}, "[6]": {"test_system": "transgenic Arabidopsis thaliana, transgene SEQ ID NO 128", "details": "Table 3, scale 0-100"}},
  "data": [
    {"smiles": "C#CCN1C(=O)COc2cc(F)c(N3C(=O)C4=C(CCCC4)C3=O)cc21", "note": "[Flumioxazin, flumioxazin]", "values": [
      {"measurement": "Herbicide injury evaluation 14 days after herbicide treatment", "setting": "[1]; SEQ ID NO 120 J, 140 g ai/ha + 1% MSO", "value": 95},
      {"measurement": "Herbicide injury evaluation 14 days after herbicide treatment", "setting": "[1]; SEQ ID NO 120 J, 280 g ai/ha + 1% MSO", "value": 85},
      {"measurement": "Herbicide injury evaluation 14 days after herbicide treatment", "setting": "[1]; SEQ ID NO 120 J, 420 g ai/ha + 1% MSO", "value": 95},
      {"measurement": "Herbicide injury evaluation 14 days after herbicide treatment", "setting": "[1]; SEQ ID NO 120 M, 140 g ai/ha + 1% MSO", "value": 75},
      {"measurement": "Herbicide injury evaluation 14 days after herbicide treatment", "setting": "[1]; SEQ ID NO 120 M, 280 g ai/ha + 1% MSO", "value": 98},
      {"measurement": "Herbicide injury evaluation 14 days after herbicide treatment", "setting": "[1]; SEQ ID NO 120 M, 420 g ai/ha + 1% MSO", "value": 98},
      {"measurement": "Herbicide injury evaluation 14 days after herbicide treatment", "setting": "[2]; SEQ ID NO 121 G, 140 g ai/ha + 1% MSO", "value": 100},
      {"measurement": "Herbicide injury evaluation 14 days after herbicide treatment", "setting": "[2]; SEQ ID NO 121 G, 280 g ai/ha + 1% MSO", "value": 100},
      {"measurement": "Herbicide injury evaluation 14 days after herbicide treatment", "setting": "[2]; SEQ ID NO 121 G, 420 g ai/ha + 1% MSO", "value": 100},
      {"measurement": "Herbicide injury evaluation 14 days after herbicide treatment", "setting": "[2]; SEQ ID NO 121 H, 140 g ai/ha + 1% MSO", "value": 100},
      {"measurement": "Herbicide injury evaluation 14 days after herbicide treatment", "setting": "[2]; SEQ ID NO 121 H, 280 g ai/ha + 1% MSO", "value": 100},
      {"measurement": "Herbicide injury evaluation 14 days after herbicide treatment", "setting": "[2]; SEQ ID NO 121 H, 420 g ai/ha + 1% MSO", "value": 100},
      {"measurement": "Herbicide injury evaluation 14 days after herbicide treatment", "setting": "[3]; Table 3, SEQ ID NO 118 Q, 140 g ai/ha + 1% MSO", "value": 48},
      {"measurement": "Herbicide injury evaluation 14 days after herbicide treatment", "setting": "[3]; Table 3, SEQ ID NO 118 Q, 280 g ai/ha + 1% MSO", "value": 60},
      {"measurement": "Herbicide injury evaluation 14 days after herbicide treatment", "setting": "[3]; Table 3, SEQ ID NO 118 Q, 420 g ai/ha + 1% MSO", "value": 60},
      {"measurement": "Herbicide injury evaluation 14 days after herbicide treatment", "setting": "[3]; Table 3, SEQ ID NO 118 R, 140 g ai/ha + 1% MSO", "value": 23},
      {"measurement": "Herbicide injury evaluation 14 days after herbicide treatment", "setting": "[3]; Table 3, SEQ ID NO 118 R, 280 g ai/ha + 1% MSO", "value": 28},
      {"measurement": "Herbicide injury evaluation 14 days after herbicide treatment", "setting": "[3]; Table 3, SEQ ID NO 118 R, 420 g ai/ha + 1% MSO", "value": 28},
      {"measurement": "Herbicide injury evaluation 14 days after herbicide treatment", "setting": "[3]; Table 4, SEQ ID NO 118 Q, 140 g ai/ha + 1% MSO", "value": 60},
      {"measurement": "Herbicide injury evaluation 14 days after herbicide treatment", "setting": "[3]; Table 4, SEQ ID NO 118 Q, 280 g ai/ha + 1% MSO", "value": 65},
      {"measurement": "Herbicide injury evaluation 14 days after herbicide treatment", "setting": "[3]; Table 4, SEQ ID NO 118 Q, 420 g ai/ha + 1% MSO", "value": 70},
      {"measurement": "Herbicide injury evaluation 14 days after herbicide treatment", "setting": "[3]; Table 4, SEQ ID NO 118 R, 140 g ai/ha + 1% MSO", "value": 63},
      {"measurement": "Herbicide injury evaluation 14 days after herbicide treatment", "setting": "[3]; Table 4, SEQ ID NO 118 R, 280 g ai/ha + 1% MSO", "value": 60},
      {"measurement": "Herbicide injury evaluation 14 days after herbicide treatment", "setting": "[3]; Table 4, SEQ ID NO 118 R, 420 g ai/ha + 1% MSO", "value": 35},
      {"measurement": "Herbicide injury evaluation 14 days after herbicide treatment", "setting": "[4]; Table 3, 140 g ai/ha + 1% MSO", "value": 100},
      {"measurement": "Herbicide injury evaluation 14 days after herbicide treatment", "setting": "[4]; Table 3, 280 g ai/ha + 1% MSO", "value": 100},
      {"measurement": "Herbicide injury evaluation 14 days after herbicide treatment", "setting": "[4]; Table 3, 420 g ai/ha + 1% MSO", "value": 100},
      {"measurement": "Herbicide injury evaluation 14 days after herbicide treatment", "setting": "[4]; Table 4, 140 g ai/ha + 1% MSO", "value": 100},
      {"measurement": "Herbicide injury evaluation 14 days after herbicide treatment", "setting": "[4]; Table 4, 280 g ai/ha + 1% MSO", "value": 100},
      {"measurement": "Herbicide injury evaluation 14 days after herbicide treatment", "setting": "[4]; Table 4, 420 g ai/ha + 1% MSO", "value": 100},
      {"measurement": "Herbicide injury evaluation 14 days after herbicide treatment", "setting": "[5]; SEQ ID NO 117 C, 140 g ai/ha + 1% MSO", "value": 94},
      {"measurement": "Herbicide injury evaluation 14 days after herbicide treatment", "setting": "[5]; SEQ ID NO 117 C, 280 g ai/ha + 1% MSO", "value": 95},
      {"measurement": "Herbicide injury evaluation 14 days after herbicide treatment", "setting": "[5]; SEQ ID NO 117 C, 420 g ai/ha + 1% MSO", "value": 95},
      {"measurement": "Herbicide injury evaluation 14 days after herbicide treatment", "setting": "[5]; SEQ ID NO 117 I, 140 g ai/ha + 1% MSO", "value": 90},
      {"measurement": "Herbicide injury evaluation 14 days after herbicide treatment", "setting": "[5]; SEQ ID NO 117 I, 280 g ai/ha + 1% MSO", "value": 94},
      {"measurement": "Herbicide injury evaluation 14 days after herbicide treatment", "setting": "[5]; SEQ ID NO 117 I, 420 g ai/ha + 1% MSO", "value": 97},
      {"measurement": "Herbicide injury evaluation 14 days after herbicide treatment", "setting": "[6]; SEQ ID NO 128 D, 140 g ai/ha + 1% MSO", "value": 100},
      {"measurement": "Herbicide injury evaluation 14 days after herbicide treatment", "setting": "[6]; SEQ ID NO 128 D, 280 g ai/ha + 1% MSO", "value": 94},
      {"measurement": "Herbicide injury evaluation 14 days after herbicide treatment", "setting": "[6]; SEQ ID NO 128 D, 420 g ai/ha + 1% MSO", "value": 93},
      {"measurement": "Herbicide injury evaluation 14 days after herbicide treatment", "setting": "[6]; SEQ ID NO 128 E, 140 g ai/ha + 1% MSO", "value": 93},
      {"measurement": "Herbicide injury evaluation 14 days after herbicide treatment", "setting": "[6]; SEQ ID NO 128 E, 280 g ai/ha + 1% MSO", "value": 99},
      {"measurement": "Herbicide injury evaluation 14 days after herbicide treatment", "setting": "[6]; SEQ ID NO 128 E, 420 g ai/ha + 1% MSO", "value": 100}
    ]}
  ]
}
